Results on 10 compounds are retold here after patent publication US20250034173A1, “PYRIDO[4,3-D]PYRIMIDINE COMPOUNDS” (PFIZER INC., priority 2023, published 2025).

One assay has as its target KRAS Wild Type (Homo sapiens (Human), UniProt P01116). Briefly: SPR binding affinity and kinetics, GTPγS-loaded KRAS Wild Type. As to conditions: GTPγS loaded protein, geomean. The source says: (§1) No additional regeneration was used.
(§2) Compound dissociation was monitored for at least 3600 seconds. […] No additional regeneration was used.
(§3) The adequateness of the fit was judged by c2 values and the randomness of residue distribution.
In general terms: SPR reads the build-up and loss of mass on a sensor chip optically.

Another assay addresses KRAS G12D (Homo sapiens (Human), UniProt P01116, G12D). Put plainly: SPR binding affinity and kinetics, GTPγS-loaded KRAS G12D. Particulars: GTPγS loaded protein, geomean.
Excerpt: as §1, §2, §3

In the next assay the target is KRAS G12C (Homo sapiens (Human), UniProt P01116, G12C). Put plainly: SPR binding affinity and kinetics, GTPγS-loaded KRAS G12C. As to conditions: GTPγS loaded protein, geomean.
Excerpt: as §1, §2, §3

Another assay has as its target KRAS G12V (Homo sapiens (Human), UniProt P01116, G12V). Briefly: SPR binding affinity and kinetics, GTPγS-loaded KRAS G12V. As to conditions: GTPγS loaded protein, geomean.
Excerpt: as §1, §2, §3

Another assay addresses HRAS Wild Type (Homo sapiens (Human), UniProt P01112). Briefly: SPR binding affinity and kinetics, GTPγS-loaded HRAS Wild Type. As to conditions: GTPγS loaded protein, geomean.
Excerpt: as §1, §2, §3

The next assay concerns the target NRAS Wild Type (Homo sapiens (Human), UniProt P01111). Briefly: SPR binding affinity and kinetics, GTPγS-loaded NRAS Wild Type. Particulars: GTPγS loaded protein, geomean.
Excerpt: as §1, §2, §3

In assay [1] the test system is H358 (non-small cell lung cancer cell line). Put plainly: KRAS Cell Titer Glo (CTG) cell proliferation assay, H358. As to conditions: H358 cells, 7-day CTG, geomean IC50. The assay is classed as cell-based. The source says: (§4) The CellTiter-Glo® (CTG) Luminescent Cell Viability Assay is a homogeneous method of determining the number of viable cells in culture based on quantitation of the ATP present, an indicator of metabolically active cells. The CTG is designed for use with multi-well formats, making it ideal for automated high-throughput screening (HTS), cell proliferation and cytotoxicity assays. The homogeneous assay procedure involves adding the single reagent (CellTiter-Glo® Reagent) directly to cells cultured in serum-supplemented medium. Cell washing, removal of medium and multiple pipetting steps are not required. The system detects as few as 15 cells per well in a 384-well format in 10 minutes after adding reagent and mixing.
(§5) Cells are grown in humidified 5% CO2 incubator at 37° C. using the culture conditions outlined below. All cell culture media reagents were purchased from Gibco. Cell lines purchased from ATCC: H358 (non-small cell lung cancer cell line), SW620 (colorectal cancer cell line), PANC08.13 (RPM11640+10% FBS+10 units/mL Insulin, pancreatic cancer cell line). Test and control compounds are dispensed as nanoliter drops according to desired final concentrations in 0.1% DMSO using Echo Acoustic Dispenser onto 384 assay plates (Corning, Cat #3764) prior to cell seeding. Cells were seeded in 40 μL volume per well at the following cell densities (cells per well): H358 (300), SW620 (750), PANC 08.13 (600). Cells are incubated in the presence of compound for 7-days. Viability is determined on Day 7 using CellTiter-Glo® (CTG) Luminescent Cell Viability Assay (Promega). CTG is added to a […] per well and incubated at room temperature for 15 minutes before luminescence is captured using an EnVision Reader with LUM384 US protocol. Data is analyzed using Activity Base to determine compound response and will be represented either as a percent effect (PCTEFF) or percent control (PCTOCTL) as described: Zero percent effect control (ZPE) (Negative control)—100% DMSO. Hundred percent effect (HPE) (Positive control)—1 uM Trametinib (GSK1120212, MEK inhibitor) (4 nl of 10 mM and 36 nl of DMSO per well). The following equations/nomenclature are used (% Effect; PCTEFF) and (% of Control; PCTOCTL): PCTEFF: 100*(Raw_Data_Value−HPE/ZPE−HPE), PCTOCTL: 100*Raw_Data_Value/User_Defined_Array), where the User_Defined_Array is either summarized HPE or ZPE.
(§6) Cells with “nd” indicate compound not tested in that particular assay at time of writing. It is to be understood that the geomean IC50 data may change slightly over time with increasing repeat data (ie: increasing n #).

Assay [2] concerns SW620 (colorectal cancer cell line). Put plainly: KRAS Cell Titer Glo (CTG) cell proliferation assay, SW620. As to conditions: SW620 cells, 7-day CTG, geomean IC50. Format: cell-based.
Excerpt: as §4, §5, §6
Background: ATP-based viability assays read luminescence as a measure of living cells.

Assay [3] relates to PANC08.13 (pancreatic cancer cell line). Put plainly: KRAS Cell Titer Glo (CTG) cell proliferation assay, PANC08.13. Format: cell-based. As to conditions: PANC08.13 cells, 7-day CTG, geomean IC50.
Excerpt: as §4, §5, §6

Setting [4] is: Homo sapiens, PANC-08-13, 168 h.

Sequence of NRAS Wild Type (P01111 2-185): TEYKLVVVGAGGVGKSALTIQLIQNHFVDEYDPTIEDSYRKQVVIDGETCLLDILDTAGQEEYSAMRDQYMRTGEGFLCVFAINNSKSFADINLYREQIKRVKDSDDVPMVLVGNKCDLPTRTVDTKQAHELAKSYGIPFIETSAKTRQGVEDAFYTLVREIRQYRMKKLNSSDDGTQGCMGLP
Sequence of HRAS Wild Type (P01112 2-184): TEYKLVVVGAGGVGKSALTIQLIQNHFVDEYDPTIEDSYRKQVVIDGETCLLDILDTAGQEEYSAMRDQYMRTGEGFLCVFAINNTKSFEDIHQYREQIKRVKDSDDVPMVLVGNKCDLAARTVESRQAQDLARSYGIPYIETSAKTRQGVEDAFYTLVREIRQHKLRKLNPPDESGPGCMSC

The term Kd denotes the free concentration of one partner at which half of the binding sites on the other are occupied at equilibrium, for simple one-to-one binding. Turning to `C[C@@H]1CCCc2cc3[nH]ncc3c(-c3nc4c5c(nc(OC[C@@]67CCCN6C/C(=C\F)C7)nc5c3F)N3CCCOC[C@H]3CO4)c21` [Example 54, (8aS)-4-fluoro-2-{[(2Z,7aS)-2-(fluoromethylidene)tetrahydro-1H-pyrrolizin-7a(5H)-yl]methoxy}-5-[(5R)-5-methyl-5,6,7,8-tetrahydro-1H-benzo[f]indazol-4-yl]-8a,9,12,13-tetrahydro-8H,11H-7,10-dioxa-1,3,6,13a-tetraazanaphtho[1,8-ab]heptalene], the Kd at KRAS Wild Type is 0.001 µM; at KRAS G12D it was 0.001 µM; at KRAS G12C, less than 0.001 µM; on KRAS G12V, 0.001 µM; on HRAS Wild Type, greater than 10 µM; at NRAS Wild Type, greater than 10 µM.

As usually defined, the IC50 is the concentration that inhibits the measured activity by half. Low readings indicate greater potency in that assay, high ones weaker potency in that assay. For `C=C1CN2C[C@H](O)C[C@@]2(COc2nc3c4c(nc(-c5c(C6CC6)c(Cl)cc6[nH]ncc56)c(F)c4n2)OC[C@@H]2COCCCN32)C1` [Example 25, (2R,7aR)-7a-({[(8aS)-5-(6-chloro-5-cyclopropyl-1H-indazol-4-yl)-4-fluoro-8a,9,12,13-tetrahydro-8H,11H-7,10-dioxa-1,3,6,13a-tetraazanaphtho[1,8-ab]heptalen-2-yl]oxy}methyl)-6-methylidenehexahydro-1H-pyrrolizin-2-ol], the Kd at KRAS Wild Type came to 0.004 µM; at KRAS G12D, 0.003 µM; on KRAS G12C, 0.002 µM; on KRAS G12V, 0.002 µM. The IC50 in assay [1] (Homo sapiens, NCI-H358, 168 h) amounted to 0.041 µM; in assay [2] (Homo sapiens, SW-620, 168 h), 0.022 µM; in assay [3] (setting [4]), 0.013 µM.

On to `C=C1CN2CC(F)C[C@@]2(COc2nc3c4c(nc(-c5c(C6CC6)c(Cl)cc6[nH]ncc56)c(F)c4n2)OC[C@@H]2COCCCN32)C1` (stereo partly drawn) [Example 14, (8aS)-5-(6-chloro-5-cyclopropyl-1H-indazol-4-yl)-4-fluoro-2-{[(2R,7aR)-2-fluoro-6-methylidenetetrahydro-1H-pyrrolizin-7a(5H)-yl]methoxy}-8a,9,12,13-tetrahydro-8H,11H-7,10-dioxa-1,3,6,13a-tetraazanaphtho[1,8-ab]heptalene], for which the Kd on KRAS Wild Type is 0.008 µM; at KRAS G12D, 0.005 µM; at KRAS G12C, 0.009 µM; at KRAS G12V it was 0.007 µM. Besides, the IC50 is 0.08 µM in assay [1] (Homo sapiens, NCI-H358, 168 h); 0.03 µM in assay [2] (Homo sapiens, SW-620, 168 h); 0.013 µM in [3] (setting [4]).

Regarding `C=C1CN2CCC[C@@]2(COc2nc3c4c(nc(-c5c([C@@H]6C[C@H]6C)c(Cl)cc6[nH]ncc56)c(F)c4n2)OC[C@@H]2COCCCN32)C1` (single isomer, unassigned) [Example 51, (8aS)-5-{6-chloro-5-[(1R*,2R*)-2-methylcyclopropyl]-1H-indazol-4-yl}-4-fluoro-2-{[(7aS)-2-methylidenetetrahydro-1H-pyrrolizin-7a(5H)-yl]methoxy}-8a,9,12,13-tetrahydro-8H,11H-7,10-dioxa-1,3,6,13a-tetraazanaphtho[1,8-ab]heptalene], the Kd at KRAS Wild Type worked out at 0.012 µM; on KRAS G12D it was 0.006 µM; on KRAS G12C, 0.008 µM; on KRAS G12V it was 0.007 µM. Moreover, the IC50 in assay [1] (Homo sapiens, NCI-H358, 168 h) is 0.027 µM; in assay [2] (Homo sapiens, SW-620, 168 h), 0.04 µM; in assay [3] (setting [4]), 0.01 µM.

`C=C1CN2CC[C@@H](O)[C@@]2(COc2nc3c4c(nc(-c5c(C6CC6)c(Cl)cc6[nH]ncc56)c(F)c4n2)OC[C@@H]2COCCCN32)C1` (relative stereo) [Example 45, (1R,7aS*)-7a-({[(8aS)-5-(6-chloro-5-cyclopropyl-1H-indazol-4-yl)-4-fluoro-8a,9,12,13-tetrahydro-8H,11H-7,10-dioxa-1,3,6,13a-tetraazanaphtho[1,8-ab]heptalen-2-yl]oxy}methyl)-6-methylidenehexahydro-1H-pyrrolizin-1-ol]: the Kd is 0.003 µM at KRAS Wild Type, 0.001 µM at KRAS G12D, 0.003 µM at KRAS G12C and 0.002 µM on KRAS G12V. Moreover, the IC50 worked out at 0.019 µM in assay [1] (Homo sapiens, NCI-H358, 168 h); 0.032 µM in assay [2] (Homo sapiens, SW-620, 168 h); 0.02 µM in assay [3] (setting [4]).

Take `C=C1CN2CCC[C@@]2(COc2nc3c4c(nc(-c5c([C@@H]6C[C@@H]6C)c(Cl)cc6[nH]ncc56)c(F)c4n2)OC[C@@H]2COCCCN32)C1` (single isomer, unassigned) [Example 30, (8aS)-5-{6-chloro-5-[(1R*,2S*)-2-methylcyclopropyl]-1H-indazol-4-yl}-4-fluoro-2-{[(7aS)-2-methylidenetetrahydro-1H-pyrrolizin-7a(5H)-yl]methoxy}-8a,9,12,13-tetrahydro-8H,11H-7,10-dioxa-1,3,6,13a-tetraazanaphtho[1,8-ab]heptalene]: the Kd on KRAS Wild Type stood at 0.004 µM; on KRAS G12D, 0.002 µM; on KRAS G12C, 0.003 µM; at KRAS G12V, 0.004 µM. Also, the IC50 in assay [1] (Homo sapiens, NCI-H358, 168 h) amounted to 0.051 µM; in [2] (Homo sapiens, SW-620, 168 h), 0.102 µM; in assay [3] (setting [4]), 0.004 µM.

Consider `C=C1CN2CCC[C@@]2(COc2nc3c4c(nc(-c5c(C)c(Cl)cc6[nH]ncc56)c(F)c4n2)OC[C@@H]2COCCCN32)C1` [Example 7, (8aS)-5-(6-chloro-5-methyl-1H-indazol-4-yl)-4-fluoro-2-{[(7aS)-2-methylidenetetrahydro-1H-pyrrolizin-7a(5H)-yl]methoxy}-8a,9,12,13-tetrahydro-8H,11H-7,10-dioxa-1,3,6,13a-tetraazanaphtho[1,8-ab]heptalene], for which the Kd at KRAS Wild Type was 0.034 µM; at KRAS G12D, 0.028 µM; at KRAS G12C, 0.015 µM; at KRAS G12V, 0.024 µM. Also, the IC50 in assay [1] (Homo sapiens, NCI-H358, 168 h) is 0.173 µM; in [2] (Homo sapiens, SW-620, 168 h), 0.139 µM; in assay [3] (setting [4]) it was 0.022 µM.

For the compound `C=C1CN2CCC[C@@]2(COc2nc3c4c(nc(-c5c([C@H]6C[C@H]6C)c(Cl)cc6[nH]ncc56)c(F)c4n2)OC[C@@H]2COCCCN32)C1` (single isomer, unassigned) [Example 31, (8aS)-5-{6-chloro-5-[(1S*,2R*)-2-methylcyclopropyl]-1H-indazol-4-yl}-4-fluoro-2-{[(7aS)-2-methylidenetetrahydro-1H-pyrrolizin-7a(5H)-yl]methoxy}-8a,9,12,13-tetrahydro-8H,11H-7,10-dioxa-1,3,6,13a-tetraazanaphtho[1,8-ab]heptalene], the Kd at KRAS Wild Type was 0.01 µM; at KRAS G12D, 0.006 µM; on KRAS G12C, 0.007 µM; on KRAS G12V, 0.005 µM. The IC50 in [1] (Homo sapiens, NCI-H358, 168 h) came to 0.054 µM; in assay [2] (Homo sapiens, SW-620, 168 h) it was 0.115 µM; in assay [3] (setting [4]) it was 0.011 µM.

For `C=C1CN2CCC[C@@]2(COc2nc3c4c(nc(-c5c(Cl)c(C)cc6[nH]ncc56)c(F)c4n2)OC[C@@H]2COCCCN32)C1` [Example 8], the Kd on KRAS Wild Type worked out at 0.117 µM; on KRAS G12D it was 0.141 µM; on KRAS G12C it was 0.176 µM; on KRAS G12V it was 0.105 µM. Besides, the IC50 in assay [1] (Homo sapiens, NCI-H358, 168 h) amounted to 0.263 µM; in assay [2] (Homo sapiens, SW-620, 168 h) it was 0.294 µM; in assay [3] (setting [4]), 0.048 µM.

As for “(8aS)-5-(6-chloro-5-cyclopropyl-1H-indazol-4-yl)-4-fluoro-2-{[(1S,7aS*)-1-methoxy-6-methylidenetetrahydro-1H-pyrrolizin-7a(5H)-yl]methoxy}-8a,9,12,13-tetrahydro-8H,11H-7,10-dioxa-1,3,6,13a-tetraazanaphtho[1,8-ab]heptalene [Example 61]”, the dissociation constant Kd on KRAS Wild Type was found to be 0.005 µM; at KRAS G12D it was 0.003 µM; at KRAS G12C it was 0.004 µM; at KRAS G12V, 0.005 µM. Further, the IC50 amounted to 0.021 µM in [1], 0.038 µM in [2] and 0.011 µM in assay [3].
